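Where inhibition never reached the appropriate level, the endpoint shown equals the highest concentration tested. Otherwise, values were interpolated linearly from a five-concentration, 48-hour dose response in 96-well plates. Abbreviation: GI50, concentration required for 50% inhibition of growth.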 Active and inactive are the calls of the source. Cut-off read from the data, not from the text of the source: active = GI50 up to about 1.1 µM and inactive = higher.
Columns and labels:
Test in all cases: inhibition of tumour cell growth, NCI panel, 48 h
786-0 = system: 786-0
COLO 205 = system: COLO 205
DU-145 = system: DU-145
HCC 2998 = system: HCC 2998
HL-60 = system: HL-60
HOP-92 = system: HOP-92
KM12 = system: KM12
M14 = system: M14
MDA-MB-231 = system: MDA-MB-231
NCI-H226 = system: NCI-H226
NCI-H23 = system: NCI-H23
NCI-H522 = system: NCI-H522
OVCAR-4 = system: OVCAR-4
PC-3 = system: PC-3
SF-295 = system: SF-295
SK-MEL-28 = system: SK-MEL-28
SR = system: SR
SW-620 = system: SW-620
T47D = system: T47D
RPMI-8226 = system: RPMI-8226

SMILES | GI50 (786-0) | GI50 (COLO 205) | GI50 (DU-145) | GI50 (HCC 2998) | GI50 (HL-60) | GI50 (HOP-92) | GI50 (KM12) | GI50 (M14) | GI50 (MDA-MB-231) | GI50 (NCI-H226) | GI50 (NCI-H23) | GI50 (NCI-H522) | GI50 (OVCAR-4) | GI50 (PC-3) | GI50 (SF-295) | GI50 (SK-MEL-28) | GI50 (SR) | GI50 (SW-620) | GI50 (T47D) | GI50 (RPMI-8226)
C/C(=C\COP(=O)(O)OP(=O)(O)O)CC/C=C(\C)CNc1c(F)c(F)c(F)c(F)c1F | > 100 µM (inactive) | > 100 µM (inactive) | > 67.6 µM (inactive) | > 100 µM (inactive) | > 100 µM (inactive) | 82.2 µM (inactive) | > 100 µM (inactive) | > 100 µM (inactive) | 5.43 µM (inactive) | 20.3 µM (inactive) | > 100 µM (inactive) | > 100 µM (inactive) | > 100 µM (inactive) | 67.3 µM (inactive) | > 52.8 µM (inactive) | > 100 µM (inactive) | 0.0695 µM (active) | > 84.7 µM (inactive) | > 100 µM (inactive) | –
CCS(=O)(=O)c1c2cc(OC)ccc2nc2ccc(OC)cc12 | > 100 µM (inactive) | > 100 µM (inactive) | > 100 µM (inactive) | > 100 µM (inactive) | > 100 µM (inactive) | > 100 µM (inactive) | > 100 µM (inactive) | > 100 µM (inactive) | > 100 µM (inactive) | > 100 µM (inactive) | > 100 µM (inactive) | > 100 µM (inactive) | > 100 µM (inactive) | > 100 µM (inactive) | > 100 µM (inactive) | > 100 µM (inactive) | > 100 µM (inactive) | > 100 µM (inactive) | > 100 µM (inactive) | –
O[C@H]1[C@H](O)[C@@H](O)[C@@]2(O)C[C@@H](O)[C@@H]1N2 | > 100 µM (inactive) | > 100 µM (inactive) | > 100 µM (inactive) | > 100 µM (inactive) | > 100 µM (inactive) | > 100 µM (inactive) | > 100 µM (inactive) | > 100 µM (inactive) | > 100 µM (inactive) | > 100 µM (inactive) | > 100 µM (inactive) | > 100 µM (inactive) | > 100 µM (inactive) | > 100 µM (inactive) | > 100 µM (inactive) | > 100 µM (inactive) | > 100 µM (inactive) | > 100 µM (inactive) | > 100 µM (inactive) | –
COc1ccc(/C=C2/C(=O)N(/C=C3\C(=O)Oc4ccccc4C3=O)/C(=N/C(C)=O)N2C)cc1OC | > 100 µM (inactive) | > 100 µM (inactive) | > 100 µM (inactive) | > 100 µM (inactive) | > 100 µM (inactive) | – | > 100 µM (inactive) | > 100 µM (inactive) | > 100 µM (inactive) | > 100 µM (inactive) | > 100 µM (inactive) | > 100 µM (inactive) | > 100 µM (inactive) | > 100 µM (inactive) | > 100 µM (inactive) | > 100 µM (inactive) | > 100 µM (inactive) | > 100 µM (inactive) | > 100 µM (inactive) | > 100 µM (inactive)
C/C=C1/CN2[C@@H](C3=C[C@@H]4[C@@H]5N(C3=O)c3ccccc3[C@@]53CCN5C/C(=C/C)[C@@H]4C[C@H]53)C[C@@]34c5ccccc5N5C(=O)CC=C([C@H]1C[C@H]23)[C@H]54 [ISOSUNGUCINE] | 2.16 µM (inactive) | 1.81 µM (inactive) | 9.91 µM (inactive) | 2.43 µM (inactive) | 1.03 µM (active) | 5.55 µM (inactive) | 5.41 µM (inactive) | 1.18 µM (inactive) | 2.43 µM (inactive) | 7.83 µM (inactive) | 6.85 µM (inactive) | 6.9 µM (inactive) | 6.43 µM (inactive) | 2.7 µM (inactive) | 7.73 µM (inactive) | 1.42 µM (inactive) | 1.19 µM (inactive) | 2.92 µM (inactive) | 9.93 µM (inactive) | –
